# Test results published in patent publication US8883778B2, “Cyclic inhibitors of 11 beta-hydroxysteroid dehydrogenase 1” (Vitae Pharmaceuticals, Inc., priority 2009, dated 2014).
# pIC50: −log10 of the molar value.
# Target: 11β-HSD1 (Homo sapiens, UniProt P28845)
# Assay: Inhibition of a microsomal preparation of 11β-HSD1, scintillation proximity assay
# Assay type: biochemical
# Design: expressed in transfected cells; host or cells: CHO cells (microsomes)
# Details: microsomes from CHO cells overexpressing human 11β-HSD1; for inhibition at 0.1 µM: at 100 nM
# Method: All reactions were carried out at rt in 96 well clear flexible PET Microbeta plates (PerkinElmer). […] After a 10 minute pre-incubation, 50 μL of enzyme solution containing microsomes isolated from CHO cells overexpressing human 11β-HSD1 (10-20 μg/ml of total protein) was added, and the plates were incubated for 90 minutes at rt. The reaction was stopped by adding 50 μl of the SPA beads suspension containing 10 μM 18β-glycyrrhetinic acid, 5 mg/ml protein A coated YSi SPA beads (GE Healthcare) and 3.3 μg/ml of anti-cortisol antibody (East Coast Biologics) in Superblock buffer (Bio-Rad). The plates were shaken for 120 minutes at rt, and the SPA signal corresponding to [^3H]cortisol was measured on a Microbeta plate reader.
# Chain of 11β-HSD1 (P28845 whole entry): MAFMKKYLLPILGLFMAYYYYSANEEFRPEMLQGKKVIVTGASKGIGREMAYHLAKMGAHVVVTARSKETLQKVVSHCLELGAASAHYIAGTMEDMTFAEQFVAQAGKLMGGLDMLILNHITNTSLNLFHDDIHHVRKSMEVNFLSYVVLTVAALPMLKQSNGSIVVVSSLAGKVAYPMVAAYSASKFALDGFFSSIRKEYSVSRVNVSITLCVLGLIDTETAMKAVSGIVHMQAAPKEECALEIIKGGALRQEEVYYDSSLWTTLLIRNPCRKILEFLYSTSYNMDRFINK
Structure (SMILES),inhibition at 0.1 µM [%],pIC50
"C[C@@H](c1ccc(C#CC2(NC(N)=O)CCCCC2)cc1)N1CC[C@](CC(C)(C)O)(c2ccccc2)OC1=O [Example 16, 1-(1-((4-((S)-1-((S)-6-(2-hydroxy-2-methylpropyl)-2-oxo-6-phenyl-1,3-oxazinan-3-yl)ethyl)phenyl)ethynyl)cyclohexyl)urea]",95.6,8.51
"COC(=O)OC1(C#Cc2ccc([C@H](C)N3CC[C@](CC(C)(C)O)(c4ccccc4)OC3=O)cc2)CN(C(=O)OC)C1 [Example 27, Methyl 3-((4-((S)-1-((S)-6-(2-hydroxy-2-methylpropyl)-2-oxo-6-phenyl-1,3-oxazinan-3-yl)ethyl)phenyl)ethynyl)-3-(methoxycarbonyloxy)azetidine-1-carboxylate]",95.8,8.62
"COC(=O)N1CC(O)(C#Cc2ccc([C@H](C)N3CC[C@](CC(C)(C)O)(c4ccccc4)OC3=O)cc2)C1 [Example 26, Methyl 3-hydroxy-3-((4-((S)-1-((S)-6-(2-hydroxy-2-methylpropyl)-2-oxo-6-phenyl-1,3-oxazinan-3-yl)ethyl)phenyl)ethynyl)azetidine-1-carboxylate]",95.9,8.55
"C[C@@H](c1ccc(C#CC(C)(C)NS(C)(=O)=O)cc1)N1CC[C@](CC(C)(C)O)(c2ccccc2)OC1=O [Example 21, N-(4-(4-((S)-1-((S)-6-(2-hydroxy-2-methylpropyl)-2-oxo-6-phenyl-1,3-oxazinan-3-yl)ethyl)phenyl)-2-methylbut-3-yn-2-yl)methanesulfonamide]",93.7,8.47
"C[C@@H](c1ccc(C#CC(C)(C)NC(=O)N(C)C)cc1)N1CC[C@](CC(C)(C)O)(c2ccccc2)OC1=O [Example 23, 3-(4-(4-((S)-1-((S)-6-(2-hydroxy-2-methylpropyl)-2-oxo-6-phenyl-1,3-oxazinan-3-yl)ethyl)phenyl)-2-methylbut-3-yn-2-yl)-1,1-dimethylurea]",86,7.91
"C[C@@H](c1ccc(C#CC(C)(C)N)cc1)N1CC[C@](CC(C)(C)O)(c2ccccc2)OC1=O [Example 12, (S)-3-((S)-1-(4-(3-amino-3-methylbut-1-ynyl)phenyl)ethyl)-6-(2-hydroxy-2-methylpropyl)-6-phenyl-1,3-oxazinan-2-one]",63.7,7.27
"C[C@@H](c1ccc(C#CC(C)(C)NC(=O)C2CC2)cc1)N1CC[C@](CC(C)(C)O)(c2ccccc2)OC1=O [Example 8, N-(4-(4-((S)-1-((S)-6-(2-hydroxy-2-methylpropyl)-2-oxo-6-phenyl-1,3-oxazinan-3-yl)ethyl)phenyl)-2-methylbut-3-yn-2-yl)cyclopropanecarboxamide]",92.2,8.12

# The next lines start with the values.
inhibition at 0.1 µM [%],pIC50,Structure (SMILES)
97.6,8.62,"C[C@@H](c1ccc(C#CC(C)(C)NC(N)=O)cc1)N1CC[C@](CC(C)(C)O)(c2ccccc2)OC1=O [Example 19, 1-(4-(4-((S)-1-((S)-6-(2-hydroxy-2-methylpropyl)-2-oxo-6-phenyl-1,3-oxazinan-3-yl)ethyl)phenyl)-2-methylbut-3-yn-2-yl)urea]"
97,8.96,"C[C@@H](c1ccc(C#CC(C)(C)C(=O)N(C)C)cc1)N1CC[C@](CC(C)(C)O)(c2ccccc2)OC1=O [Example 5, 4-(4-((S)-1-((S)-6-(2-hydroxy-2-methylpropyl)-2-oxo-6-phenyl-1,3-oxazinan-3-yl)ethyl)phenyl)-N,N,2,2-tetramethylbut-3-ynamide]"
97.9,8.85,"C[C@@H](c1ccc(C#Cc2cc[nH]c(=O)c2)cc1)N1CC[C@](CC(C)(C)O)(c2ccccc2)OC1=O [Example 29, (S)-6-(2-hydroxy-2-methylpropyl)-3-((S)-1-(4-((2-oxo-1,2-dihydropyridin-4-yl)ethynyl)phenyl)ethyl)-6-phenyl-1,3-oxazinan-2-one]"
